A word on the inhibition: it is the share of the control response that was lost under treatment.

Holding throughout (experiment): Kinase panel study
Holding throughout (type): biochemical

One assay concerns the target T1, FRAP1 (mTOR) (Homo sapiens, UniProt P42345).
T1 construct: purchased Thermo Fisher Scientific
As to conditions: FRAP1 (mTOR); compound at 10µM; read-out: % of Inhibition. The method, then:
(§1) The Kinase panel study was entirely provided by Thermo Fisher Scientific using the two lead compounds MW01 and MW05 as well as their derivatives (MW01-E06, MW01-E10, MW01-E14, MW01-E18, MW05-E2, MW05-E3, MW05-E9 and MW05-E10. The experiment was performed using the ZLyte or Adapta protocol according to manufacturer standard operating procedures.
(§2) Based on their similar effects in our screen and molecular analysis, MW01 and MW05 were used in comparative target deconvolution studies seeking common targets despite their distinct structures. To eliminate previously identified kinases regulating NF-κB activity, such as IKK, as possible targets of MW01 and MW05, an in vitro kinase inhibition assay was performed. […] We next investigated if any of the shared kinase targets of MW01 and MW05 play a role in genotoxic stress-induced NF-κB activity and established several criteria to narrow down pathway-relevant targets. Considering the similar NF-κB inhibition phenotypes of both compounds, we hypothesized first that the target should be shared by both lead compounds. Second, based on the CaCo2 recovery values and experimental treatment concentration of 10 µM), the putative target kinase should have a low IC50 of, at most, 2000 nM for both lead compounds in the in vitro kinase panel (Fig. 2A). Based on these criteria alone, we arrived at a relatively short list of potential targets for further analysis, leaving only PIK3CG, PIK3C2G, and CLK2 (Fig. 2B). IC50 values for PIK3C2G by both lead compounds agreed best with these criteria, but RNA expression analysis indicates high tissue specificity as well as lack of expression of this kinase in our U2-OS model cell line, which we then eliminated from further analysis (Uhlén et al., 2015). […] Table 6: Percentage of inhibition of the indicated kinases by MW01 or MW05 at either 10 µM or 1 µM. n.d. = not determined.

The target in another assay is T2, PIK3CG (p11 0 gamma) (Homo sapiens, UniProt P48736).
T2 construct: purchased Thermo Fisher Scientific
T2 sequence (P48736 whole entry): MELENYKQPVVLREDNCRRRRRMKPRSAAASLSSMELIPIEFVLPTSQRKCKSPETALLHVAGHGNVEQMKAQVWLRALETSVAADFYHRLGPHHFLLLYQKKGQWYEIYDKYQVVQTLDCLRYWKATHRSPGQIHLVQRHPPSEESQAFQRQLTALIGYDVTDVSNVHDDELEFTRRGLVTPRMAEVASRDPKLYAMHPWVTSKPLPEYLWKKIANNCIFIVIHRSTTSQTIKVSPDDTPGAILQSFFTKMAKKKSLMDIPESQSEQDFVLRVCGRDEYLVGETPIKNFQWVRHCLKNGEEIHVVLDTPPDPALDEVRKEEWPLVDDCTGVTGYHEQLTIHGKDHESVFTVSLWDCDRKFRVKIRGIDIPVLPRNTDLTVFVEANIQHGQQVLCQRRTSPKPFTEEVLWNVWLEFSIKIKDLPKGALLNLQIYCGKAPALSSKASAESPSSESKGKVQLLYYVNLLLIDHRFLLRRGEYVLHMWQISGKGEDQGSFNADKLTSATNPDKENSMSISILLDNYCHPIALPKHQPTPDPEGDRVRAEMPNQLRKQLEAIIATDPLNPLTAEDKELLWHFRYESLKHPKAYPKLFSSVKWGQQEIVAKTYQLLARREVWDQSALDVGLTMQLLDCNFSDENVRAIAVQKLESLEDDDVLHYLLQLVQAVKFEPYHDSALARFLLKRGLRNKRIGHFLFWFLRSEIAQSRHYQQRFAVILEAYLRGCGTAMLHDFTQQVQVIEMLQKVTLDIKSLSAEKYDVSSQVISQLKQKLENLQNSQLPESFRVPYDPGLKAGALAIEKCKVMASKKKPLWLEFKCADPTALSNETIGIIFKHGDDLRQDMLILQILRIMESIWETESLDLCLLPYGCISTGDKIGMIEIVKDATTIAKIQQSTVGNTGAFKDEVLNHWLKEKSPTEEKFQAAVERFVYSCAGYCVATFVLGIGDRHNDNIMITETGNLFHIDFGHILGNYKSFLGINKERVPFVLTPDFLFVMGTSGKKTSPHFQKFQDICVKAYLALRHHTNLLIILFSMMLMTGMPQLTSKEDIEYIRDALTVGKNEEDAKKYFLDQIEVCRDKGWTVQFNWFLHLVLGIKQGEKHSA
As to conditions: PIK3CG; compound at 10µM; read-out: % of Inhibition. The method, then:
as §1, §2

A further assay deals with T3, AKT3 (PKB gamma) (Homo sapiens, UniProt Q9Y243).
T3 construct: purchased Thermo Fisher Scientific
T3 sequence (Q9Y243 whole entry): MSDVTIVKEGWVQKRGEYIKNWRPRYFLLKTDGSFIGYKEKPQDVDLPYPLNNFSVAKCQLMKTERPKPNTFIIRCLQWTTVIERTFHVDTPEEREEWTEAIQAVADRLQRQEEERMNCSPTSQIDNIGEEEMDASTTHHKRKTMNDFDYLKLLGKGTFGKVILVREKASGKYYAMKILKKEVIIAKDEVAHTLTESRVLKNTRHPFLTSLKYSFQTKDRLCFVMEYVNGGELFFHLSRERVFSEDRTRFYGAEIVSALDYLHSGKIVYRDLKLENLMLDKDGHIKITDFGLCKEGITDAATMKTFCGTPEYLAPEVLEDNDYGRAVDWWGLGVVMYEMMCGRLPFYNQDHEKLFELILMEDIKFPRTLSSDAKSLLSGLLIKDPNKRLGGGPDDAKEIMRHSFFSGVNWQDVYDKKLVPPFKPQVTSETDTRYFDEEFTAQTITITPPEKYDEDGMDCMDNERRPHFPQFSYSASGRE
As to conditions: AKT3 (PKB gamma); compound at 10µM; read-out: % of Inhibition. How it is done: as §1, §2

The next assay concerns the target T4, FLT3 (Homo sapiens, UniProt P36888).
T4 construct: purchased Thermo Fisher Scientific
T4 sequence (P36888 27-993): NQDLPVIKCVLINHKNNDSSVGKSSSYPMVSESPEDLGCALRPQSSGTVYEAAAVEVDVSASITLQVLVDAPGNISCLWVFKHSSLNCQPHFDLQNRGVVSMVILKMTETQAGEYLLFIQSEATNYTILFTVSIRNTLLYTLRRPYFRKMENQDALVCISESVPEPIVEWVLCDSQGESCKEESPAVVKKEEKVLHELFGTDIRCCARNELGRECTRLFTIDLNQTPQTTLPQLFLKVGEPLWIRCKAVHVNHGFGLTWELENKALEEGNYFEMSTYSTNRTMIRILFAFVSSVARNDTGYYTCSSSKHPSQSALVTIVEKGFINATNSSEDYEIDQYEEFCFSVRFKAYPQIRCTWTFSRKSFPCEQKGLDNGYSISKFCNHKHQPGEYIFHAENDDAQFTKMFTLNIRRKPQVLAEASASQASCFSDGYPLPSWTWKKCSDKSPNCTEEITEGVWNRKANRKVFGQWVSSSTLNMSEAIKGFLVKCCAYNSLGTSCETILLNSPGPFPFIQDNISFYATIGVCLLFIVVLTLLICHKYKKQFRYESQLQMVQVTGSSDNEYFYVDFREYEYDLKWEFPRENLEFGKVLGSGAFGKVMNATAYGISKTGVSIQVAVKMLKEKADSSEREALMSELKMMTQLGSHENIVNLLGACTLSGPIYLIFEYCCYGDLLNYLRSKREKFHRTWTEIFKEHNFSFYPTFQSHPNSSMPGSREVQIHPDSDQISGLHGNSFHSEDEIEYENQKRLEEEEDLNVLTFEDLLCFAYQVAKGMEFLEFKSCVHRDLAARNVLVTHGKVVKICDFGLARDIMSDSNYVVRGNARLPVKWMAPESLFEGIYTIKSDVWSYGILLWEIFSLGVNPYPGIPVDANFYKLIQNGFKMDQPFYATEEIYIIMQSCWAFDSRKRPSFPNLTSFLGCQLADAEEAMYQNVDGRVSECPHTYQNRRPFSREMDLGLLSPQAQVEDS
The conditions noted are these: FLT3; compound at 10µM; read-out: % of Inhibition. The method, then:
as §1, §2

Another assay has as its target T5, DYRK1A (Homo sapiens, UniProt Q13627).
T5 construct: purchased Thermo Fisher Scientific
The conditions noted are these: DYRK1A; compound at 10µM; read-out: % of Inhibition. How it is done:
as §1, §2

A further assay concerns the target T6, PIK3C2A (PI3K-C2 alpha) (Homo sapiens, UniProt O00443).
T6 construct: purchased Thermo Fisher Scientific
As to conditions: PIK3C2A (PI3K-C2 alpha); compound at 10µM; read-out: % of Inhibition. How it is done: as §1, §2

The next assay concerns the target T7, IKBKB (IKK beta) (Homo sapiens, UniProt O14920).
T7 construct: purchased Thermo Fisher Scientific
T7 sequence (O14920 1-756): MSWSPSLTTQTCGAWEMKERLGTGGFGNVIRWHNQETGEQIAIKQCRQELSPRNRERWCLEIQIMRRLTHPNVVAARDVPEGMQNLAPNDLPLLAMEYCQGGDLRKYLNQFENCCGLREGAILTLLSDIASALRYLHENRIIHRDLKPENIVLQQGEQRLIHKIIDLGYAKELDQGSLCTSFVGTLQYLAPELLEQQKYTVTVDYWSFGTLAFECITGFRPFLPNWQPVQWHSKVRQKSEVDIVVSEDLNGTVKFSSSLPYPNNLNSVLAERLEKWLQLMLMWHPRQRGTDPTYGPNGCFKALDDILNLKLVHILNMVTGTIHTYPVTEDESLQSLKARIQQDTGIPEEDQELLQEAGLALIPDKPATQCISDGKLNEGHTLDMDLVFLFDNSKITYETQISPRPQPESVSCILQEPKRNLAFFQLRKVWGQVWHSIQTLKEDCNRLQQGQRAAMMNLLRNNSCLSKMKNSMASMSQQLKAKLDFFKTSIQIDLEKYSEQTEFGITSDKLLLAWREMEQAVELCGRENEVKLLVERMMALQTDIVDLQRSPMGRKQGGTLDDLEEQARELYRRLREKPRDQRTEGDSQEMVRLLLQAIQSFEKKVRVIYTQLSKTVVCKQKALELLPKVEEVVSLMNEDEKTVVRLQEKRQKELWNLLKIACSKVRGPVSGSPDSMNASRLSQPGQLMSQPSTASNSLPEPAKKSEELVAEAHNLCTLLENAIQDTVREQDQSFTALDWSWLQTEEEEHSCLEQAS
The conditions noted are these: IKBKB (IKK beta); compound at 10µM; read-out: % of Inhibition. The method, then: as §1, §2

Another assay has as its target T8, ALK (Homo sapiens, UniProt Q9UM73).
T8 construct: purchased Thermo Fisher Scientific
The conditions noted are these: ALK; compound at 10µM; read-out: % of Inhibition. The method, then: as §1, §2

Another assay has as its target T9, PI4KB (PI4K beta) (Homo sapiens, UniProt Q9UBF8).
T9 construct: purchased Thermo Fisher Scientific
The conditions noted are these: PI4KB (PI4K beta); compound at 10µM; read-out: % of Inhibition. How it is done: as §1, §2

T9 sequence (Q9UBF8 whole entry): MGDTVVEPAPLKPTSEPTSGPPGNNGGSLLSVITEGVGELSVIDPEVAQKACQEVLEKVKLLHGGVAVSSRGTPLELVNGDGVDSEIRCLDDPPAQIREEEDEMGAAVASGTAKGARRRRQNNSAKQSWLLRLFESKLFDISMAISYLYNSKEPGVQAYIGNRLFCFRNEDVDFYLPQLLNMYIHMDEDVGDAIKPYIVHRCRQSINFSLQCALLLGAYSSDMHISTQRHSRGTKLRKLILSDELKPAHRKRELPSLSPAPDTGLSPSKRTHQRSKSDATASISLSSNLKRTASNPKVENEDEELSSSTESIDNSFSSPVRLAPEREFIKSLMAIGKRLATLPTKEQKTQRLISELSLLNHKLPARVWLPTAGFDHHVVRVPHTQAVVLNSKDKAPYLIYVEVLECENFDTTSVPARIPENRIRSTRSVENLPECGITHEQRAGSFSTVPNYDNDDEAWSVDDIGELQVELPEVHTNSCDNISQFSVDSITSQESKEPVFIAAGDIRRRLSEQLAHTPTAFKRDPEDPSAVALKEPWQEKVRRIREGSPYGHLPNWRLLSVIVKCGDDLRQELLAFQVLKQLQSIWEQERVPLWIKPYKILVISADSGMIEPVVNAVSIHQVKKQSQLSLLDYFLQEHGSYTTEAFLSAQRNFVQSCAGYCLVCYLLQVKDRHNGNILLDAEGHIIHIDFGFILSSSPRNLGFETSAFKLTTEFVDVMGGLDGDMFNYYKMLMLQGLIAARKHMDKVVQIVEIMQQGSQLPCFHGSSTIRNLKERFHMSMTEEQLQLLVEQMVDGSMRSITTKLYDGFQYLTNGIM
T6 sequence (O00443 whole entry): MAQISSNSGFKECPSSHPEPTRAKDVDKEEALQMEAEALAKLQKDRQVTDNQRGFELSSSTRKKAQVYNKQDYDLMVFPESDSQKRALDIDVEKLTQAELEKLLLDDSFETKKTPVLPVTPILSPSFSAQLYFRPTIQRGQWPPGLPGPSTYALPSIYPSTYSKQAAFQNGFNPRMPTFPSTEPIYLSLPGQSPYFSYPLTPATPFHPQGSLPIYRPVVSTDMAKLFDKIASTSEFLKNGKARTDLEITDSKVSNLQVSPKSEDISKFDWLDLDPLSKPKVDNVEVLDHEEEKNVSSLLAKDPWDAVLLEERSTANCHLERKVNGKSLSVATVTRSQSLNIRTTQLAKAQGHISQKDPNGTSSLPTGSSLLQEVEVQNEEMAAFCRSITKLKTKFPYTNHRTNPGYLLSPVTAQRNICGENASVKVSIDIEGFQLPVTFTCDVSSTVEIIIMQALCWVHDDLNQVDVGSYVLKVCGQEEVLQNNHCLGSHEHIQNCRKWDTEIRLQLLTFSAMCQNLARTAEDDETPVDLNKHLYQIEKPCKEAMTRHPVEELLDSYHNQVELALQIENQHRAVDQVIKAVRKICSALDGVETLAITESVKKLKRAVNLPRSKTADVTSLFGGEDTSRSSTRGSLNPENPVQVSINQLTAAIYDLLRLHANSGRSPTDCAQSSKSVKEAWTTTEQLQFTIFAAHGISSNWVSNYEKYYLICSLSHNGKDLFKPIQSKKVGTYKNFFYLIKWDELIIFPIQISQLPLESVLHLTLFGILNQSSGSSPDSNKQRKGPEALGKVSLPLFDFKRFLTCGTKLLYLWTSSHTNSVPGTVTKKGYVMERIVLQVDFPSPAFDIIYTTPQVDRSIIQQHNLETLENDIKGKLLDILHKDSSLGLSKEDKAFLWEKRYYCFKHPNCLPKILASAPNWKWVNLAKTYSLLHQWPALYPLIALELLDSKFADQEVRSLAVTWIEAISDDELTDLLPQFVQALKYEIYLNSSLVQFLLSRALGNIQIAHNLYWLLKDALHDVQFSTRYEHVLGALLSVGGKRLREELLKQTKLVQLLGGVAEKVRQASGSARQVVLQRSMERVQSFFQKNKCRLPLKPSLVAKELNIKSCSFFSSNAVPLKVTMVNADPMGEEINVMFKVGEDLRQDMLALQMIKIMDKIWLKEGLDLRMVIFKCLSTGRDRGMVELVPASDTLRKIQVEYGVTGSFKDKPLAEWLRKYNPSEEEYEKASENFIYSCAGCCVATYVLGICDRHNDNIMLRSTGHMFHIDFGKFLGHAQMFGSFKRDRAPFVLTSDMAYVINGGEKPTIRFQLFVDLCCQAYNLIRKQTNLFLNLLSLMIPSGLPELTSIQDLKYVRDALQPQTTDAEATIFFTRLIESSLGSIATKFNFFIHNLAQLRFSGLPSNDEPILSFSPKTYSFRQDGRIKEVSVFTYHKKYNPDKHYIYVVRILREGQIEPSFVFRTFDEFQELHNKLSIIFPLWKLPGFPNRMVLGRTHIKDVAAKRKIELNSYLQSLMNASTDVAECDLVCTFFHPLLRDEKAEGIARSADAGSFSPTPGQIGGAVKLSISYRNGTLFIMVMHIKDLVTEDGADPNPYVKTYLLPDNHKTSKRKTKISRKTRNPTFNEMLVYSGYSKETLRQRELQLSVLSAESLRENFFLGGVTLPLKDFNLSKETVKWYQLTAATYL

In the case of `COc1ccc2c(c1)c1ccnc3c4ccnc(OC)c4c(=O)n2c13` [MW01-E14, 5,17-dimethoxy-1,11,16-triazapentacyclo[10.7.1.0^2,^7.0^8,^20.0^13,^18]icosa-2(7),3,5,8(20),9,11,13(18),14,16-nonaen-19-one], the inhibition at 10 µM on FRAP1 (mTOR) came to 26%; at PIK3CG (p11 0 gamma), 49%; on AKT3 (PKB gamma) it was 23%; at FLT3, 12%; at DYRK1A, 12%; on PIK3C2A (PI3K-C2 alpha), 23%. Moreover, the inhibition at 10 µM amounted to 16% at IKBKB (IKK beta), 15% at ALK and 36% on PI4KB (PI4K beta).

These data come from EP4467141A1, “PYRAZOLO-QUINOLINES AS SELECTIVE INHIBITORS OF GENOTOXIC STRESS-INDUCED IKK/NF- KB PATHWAYS FOR CANCER THERAPY” (Max-Delbrück-Centrum für Molekulare Medizin in der …, priority 2023, dated 2024).
